# Measurements: article PMC11767451, “Novel Approaches to Monitor Pharmacokinetics and Metabolism of Gemcitabine-Ibandronate Conjugate in Mice and Dogs” (Molecules, 2025)
# Columns and labels:
# [1] = Stability in dog plasma (accelerated, freeze-thaw, frozen PK samples); format: in vitro ADME; conditions: for %-ACC (% accuracy vs nominal): 3 freeze-thaw cycles (<−70 °C / bench); for %-ACC, frozen PK sample stability: dog plasma PK samples re-extracted after 1.5 years at <−70 °C
# Description: (§1) For stability testing, QC samples were prepared by spiking plasma with QC stock solutions. These stability samples were stored for the predetermined time periods before extraction (accelerated stability and freeze–thaw stability) or after extraction (autosampler stability) and were run with freshly prepared calibrator standards. For accelerated stability, samples were stored at 4 °C and at room temperature for 4 h and 24 h prior to sample extraction. […] Assay A compounds (GEM-IB and IB) were also tested at 1 h and 2 h exposed to 4 °C and at room temperature to evaluate for which duration GEM-IB is stable.
# (§2) Freeze–thaw cycle stability was assessed by storing the stability samples overnight in the freezer (<−70 °C) and thawing them the next day on the bench. Once thawed, samples were placed back into the freezer. This was carried out for three freeze–thaw cycles for all compounds.
# (§3) To assess the stability of study samples, PK samples were re-extracted after storage at <−70 °C for 1.5 years (see Supplementary Table S4).
# (§4) Method development and validation was conducted following applicable FDA guidelines for bioanalytical assays, as considered fit for purpose. Specificity. Endogenous interferences were excluded by analysis of blank plasma from 6 different individual lots of plasma. The lower limit of quantification (LLOQ) was determined as the lowest concentration consistently achieving an accuracy better than ±20% of the nominal concentration, with imprecision ≤20%. Predefined acceptance criteria. The performance of the assay was considered acceptable if intra- and inter-day imprecision (coefficient of variance, %CV) at each concentration was ≤15%, except at the LLOQ (≤20%). Intra- and inter-day accuracy had to be ±15% of the nominal value, except at the LLOQ (±20%). Calibration curves had to have a correlation coefficient (r) of 0.99 or better. Analytical recovery and imprecision. Intra- and inter-day analytical accuracy and imprecision were tested at least at four concentration levels depending on the LLOQ for each compound. Intra-day imprecision and accuracy were determined with n = 6 per QC level. Inter-day imprecision and accuracy were measured over 3 days, with six replicates for each QC concentration (n = 18). Extraction efficiency and matrix effect. Extraction efficiency for GEM-IB and metabolites was established by comparing the signals of the analytes after the extraction of QCs (n = 6/concentrations), with the signals of the extracted blank matrix spiked with the respective concentrations of analytes after the extraction procedure. The matrix effect was determined by comparing the analyte LC-MS/MS signal after spiking of the analyte into the extracted blank matrix (matrix from 6 different individual lots, analyte concentrations as for the QC samples) with the HPLC-MS/MS signal of the same amount of analyte in neat solution [25]. Carry-over. Carry-over was assessed by injecting blank buffer samples after analysis of the highest calibrators. Carry-over was considered insignificant if there was no signal at the relevant retention times exceeding 20% of the analyte signals at the LLOQ. Stability. QC samples were freshly prepared. One set was extracted and was analyzed immediately to determine baseline signals.
# [2] = Autosampler stability of extracted dog plasma samples at 4 °C; format: physicochemical
# Description: (§5) The stability of extracted dog and mouse plasma samples in the autosampler at 4 °C was established for 24 and 48 h. Except for GEM-IB, in mouse and dog plasma extracts, all analytes were within ±20% of the nominal enriched concentration for up to 48 h in the autosampler. GEM-IB was stable for up to 24 h under these conditions.
# as §4, with “signals. Analyte stability in plasma was evaluated at two QC concentration levels (n = 3/concentration level) under different conditions: 1, 2, and 24 h at room temperature and at 4 °C. In addition, stability after extraction was determined after 24 h and 48 h at 4 °C in the autosampler and for up to 3 freeze (−70 °C)–thaw (ambient) cycles. Stability was assessed by comparing analyte concentrations with baseline (t0) concentrations. Stability was assumed when the results were within ±20% of the baseline concentrations. Long-term stability estimates were performed by re-extraction of samples used during the PK study (n = 6). Samples were initially analyzed for the PK assessment and were stored for 1.5 years (GEM-IB and IB) and 2.5 years (GEM, GEMMP, dFdU, and dFdU-MP) at <−70 °C prior to reanalysis. Stability was assessed by comparing analyte concentrations with the initial assessments. Stability was acceptable when the results were within ±20% of the baseline concentrations and the percent standard deviation (%-SD) was below 25%.” for “signals.”
# [3] = Stability in mouse plasma (accelerated, freeze-thaw, frozen PK samples); format: in vitro ADME; conditions: for %-ACC (% accuracy vs nominal): 3 freeze-thaw cycles (<−70 °C / bench); for %-ACC, frozen PK sample stability: mouse plasma PK samples re-extracted after 1.5 years at <−70 °C
# Description: as §1, §2, §3, §4
# [4] = Autosampler stability of extracted mouse plasma samples at 4 °C; format: physicochemical
# Description: as §5
# as §4, with “signals. Analyte stability in plasma was evaluated at two QC concentration levels (n = 3/concentration level) under different conditions: 1, 2, and 24 h at room temperature and at 4 °C. In addition, stability after extraction was determined after 24 h and 48 h at 4 °C in the autosampler and for up to 3 freeze (−70 °C)–thaw (ambient) cycles. Stability was assessed by comparing analyte concentrations with baseline (t0) concentrations. Stability was assumed when the results were within ±20% of the baseline concentrations. Long-term stability estimates were performed by re-extraction of samples used during the PK study (n = 6). Samples were initially analyzed for the PK assessment and were stored for 1.5 years (GEM-IB and IB) and 2.5 years (GEM, GEMMP, dFdU, and dFdU-MP) at <−70 °C prior to reanalysis. Stability was assessed by comparing analyte concentrations with the initial assessments. Stability was acceptable when the results were within ±20% of the baseline concentrations and the percent standard deviation (%-SD) was below 25%.” for “signals.”
smiles,measurement,setting,value
"CCCCCN(C)CCC(O)(P(=O)(O)O)P(=O)(O)O [IB, ibandronate]",%-ACC (% accuracy vs nominal),[1]; dog plasma,106.5%
same,%-ACC (percent mean accuracy vs nominal),"[1]; dog plasma, 2 hours 4°C (IB and GEM-IB, footnote)",99.3%
same,%-ACC (percent mean accuracy vs nominal),"[1]; dog plasma, 2 hours RT (IB and GEM-IB, footnote)",101.0%
same,%-ACC (percent mean accuracy vs nominal),"[1]; dog plasma, 24 hours 4°C",108.8%
same,%-ACC (percent mean accuracy vs nominal),"[1]; dog plasma, 24 hours RT",118.5%
same,"accelerated stability, result in words","[1]; dog plasma, up to 24 h at 4 °C / on ice and room temperature",stable
same,%-ACC (% accuracy vs nominal),[2]; 24 hours autosampler 4 °C,111.2%
same,%-ACC (% accuracy vs nominal),[2]; 48 hours autosampler 4 °C,107.7%
same,%-ACC (% accuracy vs nominal),[3]; mouse plasma,94.5%
same,%-ACC (percent mean accuracy vs nominal),"[3]; mouse plasma, 2 hours 4°C / on ice (IB and GEM-IB, footnote)",97.0%
same,%-ACC (percent mean accuracy vs nominal),"[3]; mouse plasma, 2 hours RT (IB and GEM-IB, footnote)",106.4%
same,%-ACC (percent mean accuracy vs nominal),"[3]; mouse plasma, 24 hours 4°C",99.7%
same,%-ACC (percent mean accuracy vs nominal),"[3]; mouse plasma, 24 hours RT",101.7%
same,"accelerated stability, result in words","[3]; mouse plasma, up to 24 h at 4 °C / on ice and room temperature",stable
same,"freeze–thaw stability, result in words","[3]; one and two freeze–thaw cycles, matrix not stated, presumably mouse plasma",stable
same,%-ACC (% accuracy vs nominal),[4]; 24 hours autosampler 4 °C,97.6%
same,%-ACC (% accuracy vs nominal),[4]; 48 hours autosampler 4 °C,98.6%
"O=c1ccn([C@@H]2O[C@H](CO)[C@@H](O)C2(F)F)c(=O)[nH]1 [dFdU, 2′,2′-difluoro-2′-deoxyuridine]","%-ACC, frozen PK sample stability",[1],failed the criteria
same,%-ACC (% accuracy vs nominal),[1]; dog plasma,109.5%
same,%-ACC (percent mean accuracy vs nominal),"[1]; dog plasma, 4 hours 4°C",100.5%
same,%-ACC (percent mean accuracy vs nominal),"[1]; dog plasma, 4 hours RT",101.3%
same,%-ACC (percent mean accuracy vs nominal),"[1]; dog plasma, 24 hours 4°C",105.3%
same,%-ACC (percent mean accuracy vs nominal),"[1]; dog plasma, 24 hours RT",98.4%
same,%-ACC (% accuracy vs nominal),[2]; 24 hours autosampler 4 °C,99.0%
same,%-ACC (% accuracy vs nominal),[2]; 48 hours autosampler 4 °C,102.0%
same,"%-ACC, frozen PK sample stability",[3],failed the criteria
same,%-ACC (% accuracy vs nominal),[3]; mouse plasma,109.5%
same,%-ACC (percent mean accuracy vs nominal),"[3]; mouse plasma, 4 hours 4°C",84.5%
same,%-ACC (percent mean accuracy vs nominal),"[3]; mouse plasma, 4 hours RT",83.8%
same,%-ACC (percent mean accuracy vs nominal),"[3]; mouse plasma, 24 hours 4°C",87.0%
same,%-ACC (percent mean accuracy vs nominal),"[3]; mouse plasma, 24 hours RT",85.2%
same,%-ACC (% accuracy vs nominal),[4]; 24 hours autosampler 4 °C,103.9%
same,%-ACC (% accuracy vs nominal),[4]; 48 hours autosampler 4 °C,103.4%
"O=c1ccn([C@@H]2O[C@H](COP(=O)(O)O)[C@@H](O)C2(F)F)c(=O)[nH]1 [dFdUMP, 2′,2′-difluoro-2′-deoxyuridine-5′-phosphate]","%-ACC, frozen PK sample stability",[1],failed the criteria
same,%-ACC (% accuracy vs nominal),[1]; dog plasma,87.7%
same,%-ACC (percent mean accuracy vs nominal),"[1]; dog plasma, 4 hours 4°C",84.2%
same,%-ACC (percent mean accuracy vs nominal),"[1]; dog plasma, 4 hours RT",86.7%
same,%-ACC (percent mean accuracy vs nominal),"[1]; dog plasma, 24 hours 4°C",85.2%
same,%-ACC (percent mean accuracy vs nominal),"[1]; dog plasma, 24 hours RT",80.5%
same,%-ACC (% accuracy vs nominal),[2]; 24 hours autosampler 4 °C,92.6%
same,%-ACC (% accuracy vs nominal),[2]; 48 hours autosampler 4 °C,84.8%
same,"%-ACC, frozen PK sample stability",[3],failed the criteria
same,%-ACC (% accuracy vs nominal),[3]; mouse plasma,87.7%
same,%-ACC (percent mean accuracy vs nominal),"[3]; mouse plasma, 4 hours 4°C",83.0%
same,%-ACC (percent mean accuracy vs nominal),"[3]; mouse plasma, 4 hours RT",80.5%
same,%-ACC (percent mean accuracy vs nominal),"[3]; mouse plasma, 24 hours 4°C",81.9%
same,%-ACC (percent mean accuracy vs nominal),"[3]; mouse plasma, 24 hours RT",81.5%
same,%-ACC (% accuracy vs nominal),[4]; 24 hours autosampler 4 °C,102.4%
same,%-ACC (% accuracy vs nominal),[4]; 48 hours autosampler 4 °C,98.8%
